The results in this text go back to the METLIN SMRT retention time set (Domingo-Almenara et al. 2019).

This data set can be described thus: gradient 5% acetonitrile 3 min, to 50% in 2 min, to 85% in 15 min, held 3 min, 100 µL/min. Particulars: column: Zorbax Extend-C18 2.1 x 50 mm; eluents: water / acetonitrile, 0.1% formic acid. Put shortly: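 Standards, all pure, were combined into mixtures of ~100 molecules and run at 100 μL/min on a Zorbax Extend-C18 column (2.1 × 50 mm, 1.8 μm) with water and acetonitrile, each containing 0.1% formic acid. A coupled quadrupole time-of-flight mass spectrometer operated in positive and negative ionization mode. Retention time values come from computationally picked adduct peaks, each inspected manually.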
`O=c1c2sccc2n(Cc2nc(-c3cccc(Br)c3)no2)c(=O)n1Cc1ccccc1` returned an RP-LC retention time of 1110 s. In the case of `CCCn1cc(CCNC(=O)Nc2ccc(Br)cc2)c2cccnc21` it was 835 s; in that of `Cc1ccc(N2CCC(NC(=O)Nc3ccccc3C)C2=O)cc1` (stereo not drawn), 823 s; in that of `CC(C)n1c(N2CCCN(C(=O)c3ccccn3)CC2)cc(=O)n(C(C)C)c1=O`, 712 s. In the case of `O=C(Cn1c(=O)c2cc(-c3cccs3)nn2c2ncccc21)NCCc1ccccc1` it was 829 s; in that of `CCOC(=O)c1[nH]c(C)c(CCC(=O)N2CCC(C(=O)NC(C)C)CC2)c1C`, 683 s; in that of `O=C(NCCC1CCN(C(=O)Nc2ccc(F)cc2F)CC1)c1ccsc1`, 757 s. For `CC1CCN(c2cc(-c3noc(C(=O)NCCN4CCOCC4)n3)ccn2)CC1` the value was 572 s. In the case of `O=C(O)c1cccc(Nc2c(-c3cccc(O)c3)nc3cnccn23)c1`, the RP-LC retention time worked out at 633 s.

For `O=C(CSc1cc(N2CCN(c3ccccc3F)CC2)ncn1)N1CCc2ccccc21`, the RP-LC retention time is 1010 s. For `COCCCNC(=O)C1CCN(C(=O)c2ncn3c2COC(c2ccc(OC)cc2)C3)CC1` (stereo not drawn) the value was 651 s; for `CC(C)CCNC(=O)C1CCN(c2cncnc2N2CCN(C)CC2)CC1`, 561 s. On to `Cc1nc(C)c(C(=O)NCCn2c(C)cnc2C2CCC2)s1`, for which the RP-LC retention time was determined as 570 s.

On to `Cn1c(CNC(=O)C2CCc3nc(N4CCCC4)ncc3C2)nc2ccccc21` (stereo not drawn), for which the RP-LC retention time was found to be 529 s.

Turning to `COc1ccc(-n2nc(C)c3sc(N4CCCC(C(=O)NC5CCCC5)C4)nc32)cc1` (stereo not drawn), the RP-LC retention time worked out at 1040 s.

In turn, `CN(Cc1ccco1)C(=O)C1c2ccccc2CC(=O)N1Cc1ccccc1` (stereo not drawn) gave an RP-LC retention time of 861 s.

`NC(=O)c1cc[nH]c1C1CCCN(S(=O)(=O)c2cnc[nH]2)C1` (stereo not drawn) displayed an RP-LC retention time of 574 s. For `CCn1cc(CCN2CCC(C(=O)N3CCCCC3)CC2)c2cccnc21` the value was 587 s; for `Cc1cccc(-c2nnc(-c3nc(NCc4ccc(C)o4)c4ccccc4n3)o2)c1`, 670 s. `CCc1nn2c(CNC(=O)C3CCN(C(C)=O)CC3)c(-c3ccccc3)nc2s1`: the RP-LC retention time stood at 664 s.

As for `CC(C)c1nnc(-c2ccc(S(=O)(=O)N3CCCCC3)o2)o1`, the RP-LC retention time stood at 890 s. For `Cc1ccccc1-c1noc(C2CCCN2C(=O)Nc2ccccc2Cl)n1` (stereo not drawn) the value was 606 s; for `CN(C)C(=O)CSc1nnc(-c2ccc3c(c2)OCCCO3)n1C1CC1`, 676 s; for `CCOc1ccc(C(=O)N2CCc3nc(-c4ccc(OC)cc4)ncc3C2)cc1`, 962 s. For `COc1ccc(NC(=O)c2c(S(=O)(=O)Nc3ccc(Cl)cc3)n[nH]c2C)cc1OC` the value was 788 s; for `CCC(=O)Nc1ccc(-n2cnc(C(=O)N3CCN(c4ccccc4OC)CC3)c2)nc1`, 667 s; for `COc1ccc(-c2cc(C)no2)cc1S(=O)(=O)N1CCN(c2ccccn2)CC1`, 651 s.

In the case of `COc1ccc(-c2csc(Nc3ccccc3)n2)cc1`, the RP-LC retention time was 1070 s. In the case of `Cc1cc2[nH]c(C(=O)Nc3cc(F)c(F)cc3F)c(CN3CCCC3)c2s1` it was 864 s; in that of `O=C(O)[C@@H]1OCCN(C2CC2)[C@H]1c1ccccc1`, 545 s. Compound `Cc1ccccc1-c1cn(CC(=O)NCc2ccc(F)c(Cl)c2)nc1N1CCOCC1` registered an RP-LC retention time of 920 s. In turn, `COc1ccc(N2CC(c3nc(-c4ccc5c(c4)oc(=O)n5C(C)C)no3)CC2=O)cc1` (stereo not drawn) displayed an RP-LC retention time of 915 s. For `CCN(CC)S(=O)(=O)c1ccc(NC(=O)c2ccc3c(=O)n4c(nc3c2)CCCCC4)cc1` the value was 875 s.
